Test results from ChEMBL document CHEMBL4265921, “Novel bisphosphonates with antiresorptive effect in bone mineralization and osteoclastogenesis” (Eur J Med Chem, 2018).
Calls of active or inactive are those of the source. No cut-off for these calls is given here.

What was measured:
[1] = target: T1, Farnesyl pyrophosphate synthase (Homo sapiens) (UniProt P14324); assay: Inhibition of recombinant human C-terminal His6-tagged FPPS expressed in Escherichia coli BL21 at 100 uM using DMAPP and IPP as substrates pretreated for 15 mins followed by substrates addition and measured after 1 hr by colorimetric method relative to control
T1 sequence (whole entry): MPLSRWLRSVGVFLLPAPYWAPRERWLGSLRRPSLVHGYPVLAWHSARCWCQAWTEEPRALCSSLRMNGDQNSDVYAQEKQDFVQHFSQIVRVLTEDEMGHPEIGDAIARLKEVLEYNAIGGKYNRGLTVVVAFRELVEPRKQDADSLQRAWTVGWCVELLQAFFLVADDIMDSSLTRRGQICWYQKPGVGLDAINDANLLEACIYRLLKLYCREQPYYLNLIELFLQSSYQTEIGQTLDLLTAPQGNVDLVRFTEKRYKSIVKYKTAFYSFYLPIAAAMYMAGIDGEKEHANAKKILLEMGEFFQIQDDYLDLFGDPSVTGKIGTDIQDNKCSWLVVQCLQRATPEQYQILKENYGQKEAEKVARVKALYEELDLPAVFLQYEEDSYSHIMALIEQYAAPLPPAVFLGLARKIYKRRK

[2] = test system: MG-63; assay: Antiproliferative activity against human MG63 cells assessed as reduction in cell proliferation at 500 uM after 72 hrs by crystal violet staining based assay; assay type: functional
[3] = target: T1, Farnesyl pyrophosphate synthase (Homo sapiens); assay: Inhibition of recombinant human C-terminal His6-tagged FPPS expressed in Escherichia coli BL21 at 1 to 10 uM using DMAPP and IPP as substrates pretreated for 15 mins followed by substrates addition and measured after 1 hr by colorimetric method relative to control
[4] = test system: RAW264.7; assay: Antiproliferative activity against mouse RAW264.7 cells assessed as change in cell proliferation at 100 uM after 72 hrs by crystal violet staining based assay relative to control; assay type: functional
[5] = test system: MG-63; assay: Antiproliferative activity against human MG63 cells assessed as change in cell proliferation at 100 uM after 72 hrs by crystal violet staining based assay relative to control; assay type: functional
[6] = test system: J774.A1; assay: Antiproliferative activity against mouse J774A.1 cells assessed as change in cell proliferation at 100 uM after 72 hrs by crystal violet staining based assay relative to control; assay type: functional
[7] = test system: PC-3; assay: Antiproliferative activity against human PC3 cells assessed as reduction in cell proliferation at 500 uM after 72 hrs by crystal violet staining based assay; assay type: functional
[8] = target: T2, Farnesyl pyrophosphate synthase (Homo sapiens, UniProt P14324); assay: Inhibition of recombinant human C-terminal His6-tagged FPPS expressed in Escherichia coli BL21 using DMAPP and IPP as substrates pretreated for 15 mins followed by substrates addition and measured after 1 hr by colorimetric method
T2 sequence (P14324 whole entry): T1 sequence (whole entry)

[9] = test system: Hydroxyapatite; assay: Binding affinity to hydroxyapatite at 100 uM using sodium salt form of compound after 5 mins by ESI/MS analysis
[10] = target: T3, Geranylgeranyl pyrophosphate synthase (Homo sapiens) (UniProt O95749); assay: Inhibition of recombinant human C-terminal His6-tagged GGPPS expressed in Escherichia coli BL21 at 1 to 10 uM using IPP and FPP as substrates pretreated for 15 mins followed by substrates addition and measured after 1 hr by colorimetric method relative to control
T3 sequence (whole entry): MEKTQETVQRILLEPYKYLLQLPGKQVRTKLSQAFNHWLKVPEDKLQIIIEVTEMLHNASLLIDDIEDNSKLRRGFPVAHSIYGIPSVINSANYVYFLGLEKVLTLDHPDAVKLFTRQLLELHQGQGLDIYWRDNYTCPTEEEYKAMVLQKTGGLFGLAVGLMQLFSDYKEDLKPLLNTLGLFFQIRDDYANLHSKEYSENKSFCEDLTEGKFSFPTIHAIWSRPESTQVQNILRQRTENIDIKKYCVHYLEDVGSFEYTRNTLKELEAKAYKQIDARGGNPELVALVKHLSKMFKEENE

[11] = test system: J774.A1; assay: Antiproliferative activity against mouse J774A.1 cells assessed as reduction in cell proliferation at 500 uM after 72 hrs by crystal violet staining based assay; assay type: functional
[12] = test system: RAW264.7; assay: Antiproliferative activity against mouse RAW264.7 cells assessed as reduction in cell proliferation at 500 uM after 72 hrs by crystal violet staining based assay; assay type: functional
[13] = test system: PC-3; assay: Antiproliferative activity against human PC3 cells assessed as change in cell proliferation at 100 uM after 72 hrs by crystal violet staining based assay relative to control; assay type: functional

IC50 [8]	Compound	inhibition [1]	Activity [2]	inhibition [3]	Activity [4]	Activity [5]	Activity [6]	Activity [7]	Activity [9]	inhibition [10]	Activity [11]	Activity [12]	Activity [13]
41 µM	O=P(O)(O)C(O)(CCNc1ncc2ccccc2n1)P(=O)(O)O	79%	inactive	68 to 79%	-52.95%	1.174%	-59.879%	inactive	84%	68 to 79%	inactive	inactive	-13.524%
–	O=P(O)(O)C(O)(CCNc1ncnc2ccccc12)P(=O)(O)O	56%	inactive	68 to 79%	-16.95%	13.185%	6.688%	inactive	–	68 to 79%	inactive	inactive	-1.552%
–	O=P(O)(O)C(O)(CCNc1ncccn1)P(=O)(O)O	54%	inactive	68 to 79%	-18.897%	-18.291%	-3.329%	inactive	–	68 to 79%	inactive	inactive	-49.419%
–	O=P(O)(O)C(O)(CCCCc1ncnc2ccccc12)P(=O)(O)O	29%	inactive	68 to 79%	-29.565%	24.024%	-15.466%	inactive	–	68 to 79%	inactive	inactive	-10.283%
–	CC(Nc1ncnc2ccccc12)C(O)(P(=O)(O)O)P(=O)(O)O (racemic)	56%	inactive	68 to 79%	-11.295%	-4.026%	-5.898%	inactive	–	68 to 79%	inactive	inactive	-15.839%
–	O=P(O)(O)C(O)(CNc1ncc2ccccc2n1)P(=O)(O)O	39.9%	inactive	68 to 79%	-25.015%	-15.998%	-11.108%	inactive	–	68 to 79%	inactive	inactive	-23.934%
–	O=P(O)(O)C(O)(CNc1nc(-c2ccccc2)nc2ccccc12)P(=O)(O)O	21%	inactive	68 to 79%	-51.774%	-1.127%	-55.522%	inactive	–	68 to 79%	inactive	inactive	0.156%
–	O=P(O)(O)C(O)(CSc1nc2ccccc2[nH]1)P(=O)(O)O	24%	inactive	68 to 79%	–	–	–	inactive	–	68 to 79%	–	–	–
–	O=P(O)(O)C(O)(CNc1nc2ccccc2s1)P(=O)(O)O	inactive	inactive	68 to 79%	–	–	–	inactive	–	68 to 79%	–	–	–
–	O=P(O)(O)C(O)(CCCNc1ncnc2ccccc12)P(=O)(O)O	25%	inactive	68 to 79%	-16.077%	21.28%	-10.813%	inactive	–	68 to 79%	inactive	inactive	-27.057%
–	O=P(O)(O)C(O)(CCCNc1ncc2ccccc2n1)P(=O)(O)O	30%	inactive	68 to 79%	-24.106%	5.921%	-58.954%	inactive	–	68 to 79%	inactive	inactive	-19.628%
–	O=P(O)(O)C(O)(CCNc1nc(-c2ccccc2)nc2ccccc12)P(=O)(O)O	25%	inactive	68 to 79%	-30.319%	-5.102%	-37.121%	inactive	–	68 to 79%	inactive	inactive	-21.523%
–	O=P(O)(O)C(O)(CNc1ncnc2ccccc12)P(=O)(O)O	52%	inactive	68 to 79%	-34.592%	-15.397%	-27.398%	inactive	81%	68 to 79%	inactive	inactive	-9.488%
–	O=P(O)(O)C(O)(CCCCc1ncccn1)P(=O)(O)O	51%	inactive	68 to 79%	-35.941%	-0.023%	-24.754%	inactive	–	68 to 79%	inactive	inactive	-14.446%
–	CC(Nc1ncc2ccccc2n1)C(O)(P(=O)(O)O)P(=O)(O)O (racemic)	40%	inactive	68 to 79%	-16.783%	-8.959%	-18.855%	inactive	–	68 to 79%	inactive	inactive	-17.252%
–	O=P(O)(O)C(O)(CCCCc1ncc2ccccc2n1)P(=O)(O)O	48%	inactive	68 to 79%	-50.127%	-2.74%	-47.396%	inactive	–	68 to 79%	inactive	inactive	-16.093%
–	O=P(O)(O)C(O)(CCCNc1ncccn1)P(=O)(O)O	43%	inactive	68 to 79%	-44.249%	-3.759%	-37.544%	inactive	–	68 to 79%	inactive	inactive	-45.479%
–	O=P(O)(O)C(O)(CSc1nc2ccccc2s1)P(=O)(O)O	26%	inactive	68 to 79%	–	–	–	inactive	–	68 to 79%	–	–	–
